Here are results for 1 compound from patent US9636347B2, “Sustained release formulations for the treatment of intraocular pressure or glaucoma” (Icon Bioscience, Inc., priority 2013, dated 2017).

Data set [1] can be described thus: Solubility of latanoprost. The data set is classed as physicochemical. To be noted: 1%, 2% or 4% (w/w %) formulations, clear solution. The source says:
Latanoprost and other prostaglandin analogs are available commercially, for example, from Cayman Chemical (Ann Arbor, Mich.).
Liquid formulations of latanoprost and benzyl benzoate were made by weighing each component and mixing them together. Latanoprost is soluble in benzyl benzoate, yielding a clear solution. The formulations were either 1%, 2%, or 4% (w/w %) latanoprost.

For data set [2] the following is noted: cited from earlier work.

Turning to `CC(C)OC(=O)CCC/C=C\C[C@@H]1[C@@H](CC[C@@H](O)CCc2ccccc2)[C@H](O)C[C@@H]1O` [Latanoprost, isopropyl-(Z)7[(1R,2R,3R,5S)3,5-dihydroxy-2-[(3R)-3-hydroxy-5-phenylpentyl]cyclopentyl]-5-heptenoate], in data set [1], the “solubility in benzyl benzoate” value is reported as “soluble”. Moreover, in data set [2] (acetone, ethanol, ethyl acetate, isopropanol, methanol, octanol), the “solubility in acetone, ethanol, ethyl acetate, isopropanol, methanol, and octanol” value is reported as “freely soluble”. In addition, the solubility in acetonitrile entry in data set [2] (acetonitrile) was “very soluble”. In addition, in data set [2] (water), the solubility in water entry is “practically insoluble”.
